Measured values published in patent US20260217717A1, “CDK2 INHIBITORS” (BLUEPRINT MEDICINES CORPORATION, priority 2023, published 2026).

Columns and labels:
[1] = target: T1, CDK1/Cyclin B1 (Homo sapiens, UniProt P06493); test: CDK1/Cyclin B1 enzymatic phosphorylation assay (Caliper mobility shift); assay type: biochemical; details: read-out: Enzyme CDK1/cyclin B1 IC50
T1 construct: GST; purchased BPS 40454
Protocol: (§1) Reactions proceeded until between 10% to 20% total peptides were phosphorylated at room temperature (25° C.) and were terminated with 35 mM 2,2′,2″,2′″-(ethane-1,2-diyldinitrilo)tetraacetic acid (EDTA). Product was detected using the Caliper mobility shift detection method where the phosphorylated peptide (product) and substrate were electrophoretically separated and measured. Percent activity was plotted against log concentration of compound and points to generate an apparent IC50.

[2] = target: T2, CDK2/Cyclin E (Homo sapiens, UniProt P24941); test: CDK2/Cyclin E enzymatic phosphorylation assay (Caliper mobility shift); assay type: biochemical; details: read-out: Enzyme CDK2/cyclin E IC50; note: 1.0 mM ATP or ATP Km
T2 construct: purchased Eurofins 14-475
Protocol: as §1

T1 sequence (P06493 whole entry): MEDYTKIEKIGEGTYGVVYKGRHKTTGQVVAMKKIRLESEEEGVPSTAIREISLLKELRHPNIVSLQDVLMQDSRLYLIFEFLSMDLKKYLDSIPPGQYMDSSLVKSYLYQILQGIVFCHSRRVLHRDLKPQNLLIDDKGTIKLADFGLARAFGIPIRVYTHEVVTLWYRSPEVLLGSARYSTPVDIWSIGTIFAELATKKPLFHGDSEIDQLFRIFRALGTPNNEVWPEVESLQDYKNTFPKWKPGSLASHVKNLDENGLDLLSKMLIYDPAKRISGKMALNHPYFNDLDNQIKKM
T1 sequence (P14635 whole entry partner): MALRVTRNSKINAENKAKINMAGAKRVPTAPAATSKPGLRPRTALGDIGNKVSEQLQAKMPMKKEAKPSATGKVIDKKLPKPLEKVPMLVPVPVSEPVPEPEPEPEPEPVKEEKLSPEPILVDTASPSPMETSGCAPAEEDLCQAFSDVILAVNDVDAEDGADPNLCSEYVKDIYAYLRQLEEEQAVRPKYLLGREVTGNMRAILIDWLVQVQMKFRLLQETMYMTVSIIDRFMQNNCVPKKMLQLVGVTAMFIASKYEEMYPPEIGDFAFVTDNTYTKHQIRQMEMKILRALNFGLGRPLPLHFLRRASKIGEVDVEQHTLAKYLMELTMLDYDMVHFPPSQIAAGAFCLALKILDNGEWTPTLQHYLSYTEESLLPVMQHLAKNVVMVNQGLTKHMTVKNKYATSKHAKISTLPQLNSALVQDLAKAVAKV

IC50 [1] [nM] | IC50 [2] [nM] | Compound
5660 | 29.2 | Cc1cc(Nc2cnc3cnn([C@@H](C)c4cccnc4)c3n2)n[nH]1 [Example 15, (S)-N-(5-methyl-1H-pyrazol-3-yl)-1-(1-(pyridin-3-yl)ethyl)-1H-pyrazolo[3,4-b]pyrazin-6-amine]
9140 | 78.1 | Cc1cc(Nc2cnc3cnn(Cc4cccnc4)c3n2)n[nH]1 [Example 3, N-(5-methyl-1H-pyrazol-3-yl)-1-(pyridin-3-ylmethyl)-1H-pyrazolo[3,4-b]pyrazin-6-amine]
2990 | 21.5 | CC(C)c1cc(Nc2cnc3cnn(CCCO)c3n2)n[nH]1 [Example 1, 3-(6-((5-isopropyl-1H-pyrazol-3-yl)amino)-1H-pyrazolo[3,4-b]pyrazin-1-yl)propan-1-ol]
119 | 0.5 | CC(C)c1cc(Nc2cnc3cnn(C[C@@H]4CCOC4)c3n2)n[nH]1 (single isomer, unassigned) [Example 12, (S)-N-(5-isopropyl-1H-pyrazol-3-yl)-1-((tetrahydrofuran-3-yl)methyl)-1H-pyrazolo[3,4-b]pyrazin-6-amine or (R)-N-(5-isopropyl-1H-pyrazol-3-yl)-1-((tetrahydrofuran-3-yl)methyl)-1H-pyrazolo[3,4-b]pyrazin-6-amine]
709 | 3 | Cc1cc(Nc2cnc3cnn([C@@H](C)c4cccnc4F)c3n2)n[nH]1 [Example 56, (S)-1-(1-(2-fluoropyridin-3-yl)ethyl)-N-(5-methyl-1H-pyrazol-3-yl)-1H-pyrazolo[3,4-b]pyrazin-6-amine]
1270 | 3.8 | CC(C)c1cc(Nc2cnc3cnn(C[C@H]4CCOC4)c3n2)n[nH]1 (single isomer, unassigned) [Example 11, (R)-N-(5-isopropyl-1H-pyrazol-3-yl)-1-((tetrahydrofuran-3-yl)methyl)-1H-pyrazolo[3,4-b]pyrazin-6-amine or (S)-N-(5-isopropyl-1H-pyrazol-3-yl)-1-((tetrahydrofuran-3-yl)methyl)-1H-pyrazolo[3,4-b]pyrazin-6-amine]
93 | 0.3 | CC(C)c1cc(Nc2cnc3cnn([C@H](C)c4cccnc4)c3n2)n[nH]1 [Example 40, (R)-N-(5-isopropyl-1H-pyrazol-3-yl)-1-(1-(pyridin-3-yl)ethyl)-1H-pyrazolo[3,4-b]pyrazin-6-amine]
1380 | 5.3 | Fc1ccccc1Cn1ncc2ncc(Nc3cc(C4COC4)[nH]n3)nc21 [Example 45, 1-(2-fluorobenzyl)-N-(5-(oxetan-3-yl)-1H-pyrazol-3-yl)-1H-pyrazolo[3,4-b]pyrazin-6-amine]
234 | 1.3 | Cc1nn(Cc2cccnc2)c2nc(Nc3cc(C(C)C)[nH]n3)cnc12 [Example 7, N-(5-isopropyl-1H-pyrazol-3-yl)-3-methyl-1-(pyridin-3-ylmethyl)-1H-pyrazolo[3,4-b]pyrazin-6-amine]
533 | 5.4 | CCc1cc(Nc2cnc3cnn(CC4CCOCC4)c3n2)n[nH]1 [Example 37, N-(5-ethyl-1H-pyrazol-3-yl)-1-((tetrahydro-2H-pyran-4-yl)methyl)-1H-pyrazolo[3,4-b]pyrazin-6-amine]
144 | 0.6 | CC(C)c1cc(Nc2cnc3cnn(C[C@H]4CCCOC4)c3n2)n[nH]1 (single isomer, unassigned) [Example 9, (R)-N-(5-isopropyl-1H-pyrazol-3-yl)-1-((tetrahydro-2H-pyran-3-yl)methyl)-1H-pyrazolo[3,4-b] pyrazin-6-amine or (S)-N-(5-isopropyl-1H-pyrazol-3-yl)-1-((tetrahydro-2H-pyran-3-yl)methyl)-1H-pyrazolo[3,4-b]pyrazin-6-amine]
2700 | 5.6 | Cc1cc(Nc2cnc3c(Cl)nn([C@@H](C)c4cccnc4F)c3n2)n[nH]1 [Example 28, (S)-3-chloro-1-(1-(2-fluoropyridin-3-yl)ethyl)-N-(5-methyl-1H-pyrazol-3-yl)-1H-pyrazolo[3,4-b]pyrazin-6-amine]
